Reference: patent US8648080B2, “Acid pump antagonist for the treatment of diseases involved in abnormal gastrointestinal motility” (RaQualia Pharma Inc., priority 2009, dated 2014)

System: gastrointestinal motility in the gastric antrum and duodenum
Assay: gastrointestinal motility under pentagastrin-stimulated gastric acid secretion in conscious dogs with force transducers
Type: in vivo, Beagle dogs
Method: Beagle dogs surgically wearing a force transducer at gastric antrum and serosal side of duodenum were used, and the motion of the gastric antrum and duodenum under wakefulness were observed. After confirming the phase III in the hungry condition, gastric acid secretion was stimulated by pentagastrin subcutaneous infusion (6 microg/kg/hr). Pentagastrin infusion was continued until the end of the study. After about 2 hours from pentagastrin infusion, an acid pump antagonist (compound A) was orally administered, and then gastrointestinal motility was continuously observed for 2-3 hours. In FIG. 1, the horizontal axis represents the time at measuring, and the vertical axis represents the gastrointestinal contraction towards muscle bridge of gastric antrum or duodenum. The phase III contraction disappeared by pentagastrin stimulation, 6 microg/kg/hr, which is known to promote gastric acid secretion; and uncoordinated contraction, which is different from the contraction of postprandial period with solid food, occurred in the stomach and duodenum.

Structure (SMILES): COCCn1c(C)nc2cc(C(=O)N(C)C)c3c(c21)OC(c1ccccc1)CC3 (single isomer, unassigned; (-)) [compound A, (−)-1-(2-methoxyethyl)-N,N,2-trimethyl-8-phenyl-1,6,7,8-tetrahydrochromeno[7,8-d]imidazole-5-carboxamide]
- effect on gastrointestinal motility (phase III contraction / IMC) (0.3 mg/kg orally, about 2 hours after start of pentagastrin s.c. infusion 6 microg/kg/hr, hungry condition, FIG. 1): the phase III contraction occurred in the stomach and duodenum
- time after administration at which phase III contraction occurred (0.3 mg/kg orally, pentagastrin infusion 6 microg/kg/hr, stomach and duodenum): one

Structure (SMILES): Cc1cccc(C)c1CNc1cc(C(=O)NCCO)cn2c(C)c(C)nc12 [AZD0865, 8-[{2,6-dimethylbenzyl}amino]-N-[2-hydroxyethyl]-2,3-dimethyl-imidazo[1,2-a]pyridin-6-carboxamide]
- time after dosing until irregular contraction tended to subside (1.5 mg/kg orally, pentagastrin infusion, method as Example 1): one
- effect on gastrointestinal motility (phase III contraction / IMC) (1.5 mg/kg orally, pentagastrin infusion, method as Example 1, FIG. 4): IMC occurred

Structure (SMILES): Cc1nc2c(O[C@H]3CCOc4cc(F)cc(F)c43)cc(C(=O)N(C)C)cc2[nH]1 [compound B, (S)-(−)-4-[(5,7-difluoro-3,4-dihydro-2H-chromen-4-yl)oxy]-N,N,2-trimethyl-1H-benzimidazole-6-carboxamide]
- time after dosing until IMC occurred (1 mg/kg orally, pentagastrin infusion, method as Example 1): one
- effect on gastrointestinal motility (phase III contraction / IMC) (1 mg/kg orally, pentagastrin infusion, method as Example 1, FIG. 2): IMC occurred

Structure (SMILES): Cc1nc(Nc2ccc(F)cc2)nc(N2CCc3ccccc3C2C)c1C.Cl (centres unmarked) [revaprazan, 5,6-dimethyl-2-(4-fluoro-phenylamino)-4-(1-methyl-1,2,3,4-tetrahydroisoquinoline-2-yl)pyrimidine hydrochloride]
- time after dosing until irregular contraction tended to subside (10 mg/kg orally, pentagastrin infusion, method as Example 1): one
- effect on gastrointestinal motility (phase III contraction / IMC) (10 mg/kg orally, pentagastrin infusion, method as Example 1, FIG. 3): IMC occurred
